Measurements as given in US9242997B2, “Tricyclic pyrazole sulphonamide compunds and methods of making and using same” (Zafgen, Inc., priority 2011, dated 2016).

Each compound was assayed against T1, Human recombinant MetAP2 (Homo sapiens, UniProt P50579) (assay: recombinant human MetAP2 inhibition assay (MAS substrate, amino acid oxidase/Amplex red fluorescence)). Settings: manganese enzyme, 30 minutes at 25° C., pH 7.5, 0.75 mM MAS substrate, 1% DMSO.
T1 construct: made in house; host or cells: Sf9 insect cells
T1 sequence (P50579 whole entry): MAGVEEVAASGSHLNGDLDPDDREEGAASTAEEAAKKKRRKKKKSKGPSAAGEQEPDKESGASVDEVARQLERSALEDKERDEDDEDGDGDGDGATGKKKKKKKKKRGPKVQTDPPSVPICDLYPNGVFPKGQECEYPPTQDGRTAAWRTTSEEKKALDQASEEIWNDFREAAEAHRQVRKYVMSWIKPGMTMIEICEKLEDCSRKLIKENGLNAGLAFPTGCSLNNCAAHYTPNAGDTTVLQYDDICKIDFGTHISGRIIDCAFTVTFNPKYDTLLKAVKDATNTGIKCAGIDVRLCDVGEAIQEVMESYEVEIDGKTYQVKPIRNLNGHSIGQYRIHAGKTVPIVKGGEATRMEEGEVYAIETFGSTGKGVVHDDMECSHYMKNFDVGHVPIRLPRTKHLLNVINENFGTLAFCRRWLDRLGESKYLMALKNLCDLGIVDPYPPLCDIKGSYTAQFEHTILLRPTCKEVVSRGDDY
Type: biochemical
Protocol: Compounds are tested for their capacity to inhibit recombinant human MetAP2 activity using the following assay.
Human recombinant MetAP2 expressed in Sf9 cells followed by affinity purification and EDTA treatment to remove endogenous active site cation was dialysed against MnCl2 to produce the manganese enzyme used in the assay. The assay was carried out for 30 minutes at 25° C. in 50 mM HEPES buffer containing 100 mM NaCl, pH 7.5 the presence of 0.75 mM Methionine-Alanine-Serine (MAS) substrate and 50 μg/ml amino acid oxidase using a dilution of purified MetAP2 giving>3-fold signal: noise. Cleavage of the substrate by MetAP2 and oxidation of free methionine by amino acid oxidase was detected and quantified using fluorescence generated by Amplex red (10-acetyl-3,7-dihydroxyphenoxazine) in combination with horseradish peroxidase which detects H2O2 released during the oxidation step. The fluorescent signal was detected using a multiwell fluorimeter. Compounds were diluted in DMSO prior to addition to assay buffer, the final DMSO concentration in the assay being 1%.
The IC50 is defined as the concentration at which a given compound achieves 50% inhibition of control. IC50 values are calculated using the XLfit software package (version 2.0.5).

Row | IC50 | Structure (SMILES)
1 | < 50 nM | CCN(CC)C/C=C\c1cc(F)ccc1S(=O)(=O)Nc1ccc2c(c1C(=O)O)OCc1nccn1-2 [Example 4, 7-[2-((Z)-3-Diethylaminoprop-1-enyl)-4-fluorobenzenesulfonylamino]-4H-5-oxa-3,9b-diazacyclopenta[a]naphthalene-6-carboxylic acid]
2 | < 50 nM | CCN(CC)C/C=C\c1cc(F)ccc1S(=O)(=O)Nc1ccc2c(c1C(=O)O)OCc1cccn1-2 [Example 2, 7-[2-((Z)-3-Diethylaminoprop-1-enyl)-4-fluorobenzenesulfonylamino]-4H-benzo[b]pyrrolo[1,2-d][1,4]oxazine-6-carboxylic acid]
3 | < 50 nM | CCN(CC)C/C=C\c1cc(F)ccc1S(=O)(=O)Nc1ccc2c(ccn3nccc23)c1C(=O)O [Example 1, 8-[2-((Z)-3-Diethylaminoprop-1-enyl)-4-fluorobenzenesulfonylamino]-pyrazolo[5,1-a]isoquinoline-7-carboxylic acid]
4 | 50 to 500 nM | CCN(CC)C/C=C\c1cc(F)ccc1S(=O)(=O)Nc1ccc2c(c1C(=O)O)CCn1nccc1-2 [Example 3, 8-[2-((Z)-3-Diethylaminoprop-1-enyl)-4-fluorobenzenesulfonylamino]-5,6-dihydropyrazolo[5,1-a]isoquinoline-7-carboxylic acid]
